Assay: Aquatic toxicity according to Method 2007
Conditions: in vivo, Mysidopsis Bahia
Excerpt: (References: OECD Guideline for the Testing of Chemicals: BG1Luc Estrogen Receptor Transactivation Test Method for Identifying Estrogen Receptor Agonists and Antagonists, OECD Guidelines for the Testing of Chemicals, Section 4, OECD Publishing, Paris, https://doi.org/10.1787/9789264185395-en, and http://ntp.niehs.nih.gov/ntp/about_ntp/sacatm/2012/september/d_draft_oecdtg457bg1luc_508.pdf; and G. Bittner, M. Denison, C. Yang, M. Stoner and G. He, Environmental Health 2014, 13 103). They were also tested for aquatic toxicity according to Method 2007 using Mysidopsis Bahia.

Which LC50 at 96 h does the source give for `CCCCCCCCCCCCCCCC[N+](C)(C)C` [CTAB, cetyl trimethyl ammonium bromide] here?
Its LC50 at 96 h is 0.2 µg/mL.
